{"source": "paper PMC10097024", "about": "“Cytotoxic and Antibacterial Prenylated Acylphloroglucinols from Hypericum olympicum L” (Plants, 2023)", "key": {"[1]": {"system": "K-562 cells", "details": "cited from earlier work"}, "[2]": {"system": "HL-60 cells", "details": "cited from earlier work"}, "[3]": {"system": "Staphylococcus aureus (ATCC 29213)", "experiment": "MIC by broth microdilution", "assay_type": "cell-based", "details": "ATCC29213, Staphylococcus aureus, read-out: MIC", "from_the_text": "(§1) The Gram-positive bacterial strains that were examined for susceptibility were: Staphylococcus aureus (ATCC 29213, American Type Cell Culture Collection, Manassas, VA, USA), Staphylococcus aureus—MRSA (NBIMCC 8327-resistant to methicillin and oxacillin, National Bulgarian Collection for Industrial Microorganisms and Cell Cultures, Sofia, Bulgaria), Enterococcus faecalis (ATCC 29212) and Streptococcus pyogenes (SAIMC 10535, Collection of the Stephan Angeloff Institute of Microbiology, Sofia, Bulgaria). The only Gram-negative bacterial strain used was Escherichia coli (ATCC 35218). Bacteria were maintained in Trypticase Soy Broth (TSB, Himedia, India) at 37 °C, aerobic conditions. For the experiments brain heart infusion (BHI) broth (#M210 HiMedia, Mumbai, India) was used for E. faecalis and S. pyogenes and Mueller Hinton broth (MHB, #M0405B) from Thermo Scientific-Oxoid (Basingstoke, UK)—for all other strains.\n(§2) BMD was performed according to the following protocol of ISO 20776/1-2006 [117]. A bacterial suspension with density of 10^8 CFU/mL (0.5 McFarland standard, OD600) was prepared from an overnight grown liquid bacterial culture homogenized over vortex and brought to a working bacterial suspension (WBS) with concentration of 5×10^5 CFU/mL by being diluted 200× with MHB or BHI broth and homogenized over vortex again. Two-fold serial dilutions of compounds 3–5 was prepared in 96-well round bottom plates to a volume of 50 μL and final range of concentrations 100–0.2 μg/mL. Stock solutions were dissolved in ethanol and MHB was used as diluent and as test for absence of contamination. Three wells were left as blank samples and 6 wells were left for control samples. An equivalent volume (50 μL) of the WBS was inoculated to each well in the aforementioned plates achieve final bacterial density of […] with the exception of the blank wells. After 18–24 h incubation under aerobic standardized conditions at 37 °C the plates were examined. […] Antibiotics dissolved in sterile distilled water were used as referent positive controls. They were penicillin G (PEN, #B0500000, Merck KGaA, Darmstadt, Germany) for E. faecalis and S. pyogenes, gentamicin (GEN, #15750-037, 50 mg/mL, Gibco, Paisley, UK) for all bacteria except S. pyogenes and ciprofloxacin (CIP, Ciproflav:10 mg/mL, Polfa S.A. Warsaw Pharmaceutical Works, Starogard Gdanski, Poland) for E. faecalis. The range of concentrations were 0.004–2 mg/L for PEN, 0.008–4 mg/L for GEN and 0.005–2 mg/L for CIP. The requirements of EUCAST (European Committee on Antimicrobial Susceptibility Testing) for their MICs were followed for discussing the results. In the end the plates which contained active agents were subjected to assessment of the dehydrogenase activity of the bacteria."}, "[4]": {"system": "Staphylococcus aureus—MRSA (NBIMCC 8327)", "experiment": "MIC by broth microdilution", "assay_type": "cell-based", "details": "read-out: MIC", "from_the_text": "as §1, §2"}, "[5]": {"system": "Enterococcus faecalis (ATCC 29212)", "experiment": "MIC by broth microdilution", "assay_type": "cell-based", "details": "ATCC29212, read-out: MIC", "from_the_text": "as §1, §2"}, "[6]": {"system": "Streptococcus pyogenes (SAIMC 10535)", "experiment": "MIC by broth microdilution", "assay_type": "cell-based", "details": "read-out: MIC", "from_the_text": "as §1, §2"}, "[7]": {"system": "EJ", "experiment": "MTT cytotoxicity test", "assay_type": "cell-based, human", "details": "Homo sapiens, 72 h exposure", "from_the_text": "(§3) The group of human cell lines used in this study were represented by the tumor cell lines MDA-MB (breast carcinoma), EJ (urinary bladder carcinoma), K-562 (chronic myeloid leukemia), HL-60 (acute pre-myeloid leukemia), HL-60/DOX (multi-drug resistant HL-60 cell line, with over expression of MRP-1) and the non-tumorigenic cell lines HEK-293 (embryonic kidney cells) and EA.hy926 (vascular endothelial cells). EJ, HL60 and EA.hy926 were purchased from American Type Culture Collection (ATCC) (Manassas, Virginia). The other cell lines were purchased from the German Collection of Microorganisms and Cell Cultures (DSMZ GmbH, Braunschweig, Germany). HL-60/DOX cell lines were generated by periodically treating HL-60 cells with anthracyclins. The conditions in which the cell culture flasks were maintained were as follows: 37 °C in an incubator “BB 16-Function Line” Heraeus (Kendro, Hanau, Germany) with 5% CO2 humidified atmosphere. The growth medium was 90% RPMI-1640, supplemented with 10% FBS and 2 mM L-glutamine. MDA-MB-231, EJ, HEK-293 and EA.hy926 cells were maintained as adherent monolayer cultures while all the other (leukemic) cell lines were grown as suspension type cultures. Cells were maintained in log phase: the adherent cell lines were subjected to trypsinization 1–2 times a week and the leukemic cell lines were passaged 2–3 times a week by removing of part of the cellular suspension and substituting it with fresh medium.\n(§4) The evaluation of cytotoxic activity was conducted by MTT test as described previously. The median inhibitory concentration (IC50) values which represent the half-maximal concentration values were calculated from sigmoidal concentration–response curves, using non-linear regression analysis (Curve fit, GraphPad Prizm 5.0 software, GraphPad Software Inc., San Diego, CA, USA). The selectivity index was calculated as the ratio of the IC50 of a non-cancerous line (HEK-293 or EA.hy926) and the average IC50 of all chemosensitive tested tumor cell lines (x). Therefore, SI=IC50HEK-293/IC50x . The resistance index (RI) was calculated as the ratio of IC50 of the multi-drug resistant HL-60/DOX cell line and the IC50 of its parent cell line: RI=IC50HL-60/DOX/IC50HL-60 ."}, "[8]": {"system": "HL-60/DOX", "experiment": "MTT cytotoxicity test", "assay_type": "cell-based, human", "details": "Homo sapiens, 72 h exposure", "from_the_text": "as §3, §4"}, "[9]": {"system": "HL-60", "experiment": "MTT cytotoxicity test", "assay_type": "cell-based, human", "details": "Homo sapiens, HL-60, 72 h exposure", "from_the_text": "as §3, §4"}, "[10]": {"system": "MDA-MB-231", "experiment": "MTT cytotoxicity test", "assay_type": "cell-based, human", "details": "Homo sapiens, MDA-MB-231, 72 h exposure", "from_the_text": "as §3, §4"}, "[11]": {"system": "K-562", "experiment": "MTT cytotoxicity test", "assay_type": "cell-based, human", "details": "Homo sapiens, K562, K-562, 72 h exposure", "from_the_text": "as §3, §4"}}, "note": "“And” between values parts separate entries of the source, which are not always exact repeats. Equal values may be shown once. Read-outs that look alike come from different tables or passages of the source."}
{"compound": "hyperbeanol D", "values": [{"measurement": "IC50", "setting": "[1]; K-562 cells", "value": 21, "unit": "µM"}]}
{"compound": "hyphenrone R", "values": [{"measurement": "IC50", "setting": "[2]", "value": 3.3, "unit": "µM"}]}
{"compound": "hyperbeanol B", "values": [{"measurement": "IC50", "setting": "[1]; K-562 cells", "value": 17, "unit": "µM"}]}
{"compound": "CNC(C)C1CCC(N)C(OC2C(N)CC(N)C(OC3OCC(C)(O)C(NC)C3O)C2O)O1", "note": "(stereo not shown) [Gentamicin, gentamicin, reference compound]", "values": [{"measurement": "MIC", "setting": "[3]", "value": "0.25 µg/mL and 0.52 µM"}, {"measurement": "MIC", "setting": "[4]", "value": "0.25 µg/mL and 0.52 µM"}, {"measurement": "MIC", "setting": "[5]", "value": "8 µg/mL and 16.8 µM"}]}
{"compound": "Hyperisampsin M", "values": [{"measurement": "IC50", "setting": "[2]", "value": 1.4, "unit": "µM"}]}
{"compound": "hyperisampsin J", "values": [{"measurement": "IC50", "setting": "[2]", "value": 0.56, "unit": "µM"}]}
{"compound": "CC1(C)S[C@@H]2[C@H](NC(=O)Cc3ccccc3)C(=O)N2[C@H]1C(=O)O", "note": "[Penicillin, penicillin G, reference compound]", "values": [{"measurement": "MIC", "setting": "[5]", "value": "2.5 µg/mL and 7.48 µM"}, {"measurement": "MIC", "setting": "[6]", "value": "0.08 µg/mL and 0.24 µM"}]}
{"compound": "hyperforin", "values": [{"measurement": "IC50", "setting": "[1]; K-562", "value": 3.2, "unit": "µM"}]}
{"compound": "COc1cc([C@@H]2c3cc4c(cc3[C@@H](O[C@@H]3O[C@@H]5CO[C@@H](C)O[C@H]5[C@H](O)[C@H]3O)[C@H]3COC(=O)[C@H]23)OCO4)cc(OC)c1O", "note": "[Etoposide, reference compound]", "values": [{"measurement": "IC50", "setting": "[7]", "value": "5.4 ± 1.3", "unit": "µM"}, {"measurement": "IC50", "setting": "[8]", "value": "42.3 ± 2.7", "unit": "µM"}, {"measurement": "IC50", "setting": "[9]", "value": "1.27 ± 0.4", "unit": "µM"}, {"measurement": "IC50", "setting": "[10]", "value": "8.42 ± 1.3", "unit": "µM"}, {"measurement": "IC50", "setting": "[11]", "value": "2.34 ± 0.7", "unit": "µM"}]}
